Data set [1] in a line: in vitro. As to conditions: human, hepatocytes.
Description: Intrinsic clearance in human hepatocytes assessed per million cells at 50 uM in presence of NADPH by HPLC-MS analysis
Data set [2] can be described thus: physchem. As to conditions: buffer, pH 7.4.
Description: Aqueous solubility of the compound in pH 7.4 HBSS buffer HPLC-MS analysis
Data set [3] is described as follows: physchem. Conditions: pH 2.3.
Description: Dissociation constant, pKa of compound at pH 2.3 to 10.8 by pressure assisted capillary electrophoresis-MS analysis
The nature of data set [4]: physchem. As to conditions: octanol/water, pH 7.4.
Description: Octanol-water distribution coefficient, log D of the compound at pH 7.4 by RP-HPLC analysis
The nature of data set [5]: in vitro. As to conditions: human, liver microsomes. (In general: Microsomes from liver hold many membrane-bound enzymes, among them those of drug oxidation.)
Description: Intrinsic clearance in human liver microsomes at 50 uM in presence of NADPH by HPLC-MS analysis

Converted amounts (≈) assume the structure as drawn.

The hepatocyte CLint is the capacity of the preparation to metabolise the compound, expressed as a volume cleared per time. A higher hepatocyte CLint goes with faster metabolism. For orientation: solubility means how much of the substance goes into solution per volume. Low values mean little dissolved substance, high ones much dissolved substance. What is called pKa is the pH at which an ionisable group is half protonated. A high value points to a group that holds its proton tightly. Usually logD stands for the decadic logarithm of the distribution of all forms, ionised or not, between an organic phase and buffer at a given pH. Higher therefore signals a more lipophilic compound. Usually microsomal CLint stands for the capacity of the preparation to metabolise the compound, expressed as a volume cleared per time. Higher therefore signals faster metabolism.

As for `COc1ccc(-c2nnc(C(=O)N3CC(Oc4ccc(CN5CC6(CCCO6)C5)cc4)C3)o2)cc1`, in “in vitro [1]”, the intrinsic clearance (hepatocyte CLint) at 50 µM is 10.4 µL/min/1e6 cells. For the same molecule, in “physchem [2]”, the concentration in solution (solubility) was 495 µM (≈ 236 µg/mL).

`COc1ccc(-c2nnc(C(=O)N3CC(Oc4ccc(CN5CCCC56COC6)cc4)C3)o2)cc1` came in with a hepatocyte CLint at 50 µM in “in vitro [1]” of 48.7 µL/min/1e6 cells. The molecule also returned a solubility in the data set “physchem [2]” of 3 µM (≈ 1.43 µg/mL). The pKa in “physchem [3]” is 6.

`COc1cc(OC2CN(C(=O)c3nnc(-c4ccccc4)o3)C2)ccc1CN1CCCC12COC2`: the hepatocyte CLint at 50 µM in “in vitro [1]” was found to be 27.5 µL/min/1e6 cells. This molecule also returned a solubility in the data set “physchem [2]” of 60 µM (≈ 28.6 µg/mL). The same molecule registered a pKa in “physchem [3]” of 8. In “physchem [4]”, this molecule registered a logD of 3.8.

Turning to `COc1cc(CN2CCCC23COC3)ccc1OC1CN(C(=O)c2nnc(-c3ccccc3)o2)C1`, the hepatocyte CLint at 50 µM in “in vitro [1]” is 25 µL/min/1e6 cells. For the same molecule, the solubility in “physchem [2]” was 221 µM (≈ 105 µg/mL). For the same molecule, the pKa in the data set “physchem [3]” worked out at 6. This molecule showed a logD in the data set “physchem [4]” of 3.5.

The molecule `COc1cc(CN2CCCC23COC3)ccc1OC1CN(C(=O)c2nnc(-c3ccc(C(F)F)cc3)o2)C1` had a hepatocyte CLint at 50 µM in the data set “in vitro [1]” of 38.5 µL/min/1e6 cells. The solubility in “physchem [2]” is 39 µM (≈ 20.5 µg/mL). Besides, the pKa in the data set “physchem [3]” is 6.1. This molecule returned a pH-dependent lipophilicity (logD) in “physchem [4]” of 3.8.

As to `COc1cc(OC2CN(C(=O)c3nnc(-c4ccc(C(F)F)cc4)o3)C2)ccc1CN1CCCC12COC2`, the hepatocyte CLint at 50 µM in the data set “in vitro [1]” turned out to be 42.7 µL/min/1e6 cells. In the data set “physchem [2]”, this molecule registered a solubility of 43 µM (≈ 22.6 µg/mL). In addition, the pKa in the data set “physchem [3]” came to 7. For the same molecule, the logD in “physchem [4]” was found to be 4.2.

The molecule `O=C(c1nnc(-c2ccccc2)o1)N1CC(Oc2ccc(CN3CC4(COC4)C3)cc2)C1` yielded a hepatocyte CLint at 50 µM in the data set “in vitro [1]” of 6.1 µL/min/1e6 cells. This molecule registered a solubility in the data set “physchem [2]” of 89 µM (≈ 38.5 µg/mL). The pKa in the data set “physchem [3]” was found to be 8.

In “in vitro [1]”, `COc1ccc(-c2nnc(C(=O)N3CC(Oc4ccc(CN5CC6(CCOC6)C5)cc4)C3)o2)cc1` returned a hepatocyte CLint at 50 µM of 10.8 µL/min/1e6 cells. Moreover, the solubility in “physchem [2]” turned out to be 82 µM (≈ 39.1 µg/mL).

In the data set “physchem [3]”, `Cc1cc(OC2CN(C(=O)c3nnc(-c4ccccc4)o3)C2)ccc1CN1CCCC2(COC2)C1` had a pKa of 7.6. This molecule also came in with a logD in the data set “physchem [4]” of 3.6.

In turn, `O=C(NC1C2CC3CC1CC(O)(C3)C2)c1cnc(OC2COC2)nc1C1CCCC1` (configuration not stated) had a solubility in “physchem [2]” of 476 µM (≈ 197 µg/mL). The microsomal CLint at 50 µM in “in vitro [5]” is 2.8 µL/min/mg. For the same molecule, the pKa in the data set “physchem [3]” worked out at 2.6. Further, in “physchem [4]”, the logD worked out at 1.9.

`COc1ccc(CN2CCCC23COC3)cc1` displayed a solubility in “physchem [2]” of 610 µM (≈ 142 µg/mL). For the same molecule, the microsomal CLint at 50 µM in “in vitro [5]” amounted to 8.1 µL/min/mg. Further, the logD in the data set “physchem [4]” was 1.8.

On to `COc1ccc(CN2CCCC3(COC3)C2)cc1`, for which the solubility in the data set “physchem [2]” stood at 744 µM (≈ 184 µg/mL). Moreover, in “in vitro [5]”, the microsomal CLint at 50 µM worked out at 28.3 µL/min/mg. In “physchem [3]”, the pKa came out at 8.08. The molecule further displayed a logD in the data set “physchem [4]” of 1.5.

In turn, `COc1ccc(-c2nnc(C(=O)N3CC(Oc4ccc(CN5CC6CC(C5)O6)cc4)C3)o2)cc1` came in with a hepatocyte CLint at 50 µM in the data set “in vitro [1]” of 38 µL/min/1e6 cells. The molecule further had a solubility in “physchem [2]” of 3 µM (≈ 1.39 µg/mL). In addition, in “physchem [3]”, the pKa came out at 7.3. In the data set “physchem [4]”, the log distribution coefficient (logD) worked out at 2.9.

Take `O=C(NC1C2CC3CC1CC(O)(C3)C2)c1cnc(OC2COC2)nc1C1CCC1` (configuration not stated): the concentration in solution in “physchem [2]” (solubility) came to 818 µM (≈ 327 µg/mL). The molecule also yielded a microsomal CLint at 50 µM in the data set “in vitro [5]” of 6.1 µL/min/mg. The molecule further displayed a logD in the data set “physchem [4]” of 1.6.

The molecule `O=C(c1nnc(-c2ccccc2)o1)N1CC(Oc2ccc(CN3CC4(COC4)C3)c(Cl)c2)C1` registered a hepatocyte CLint at 50 µM in “in vitro [1]” of 32.7 µL/min/1e6 cells. In addition, the solubility in “physchem [2]” stood at 90 µM (≈ 42 µg/mL). Besides, the pKa in the data set “physchem [3]” came to 7.7. Further, in “physchem [4]”, the logD worked out at 3.

Turning to `O=C(c1nnc(-c2ccc(OC(F)F)cc2)o1)N1CC(Oc2ccc(CN3CC4(COC4)C3)cc2)C1`, the hepatocyte CLint at 50 µM in the data set “in vitro [1]” came to 27.2 µL/min/1e6 cells. Besides, in the data set “physchem [2]”, the solubility stood at 51 µM (≈ 25.4 µg/mL). The logD in the data set “physchem [4]” worked out at 2.5.

`O=C(NC1C2CC3CC1CC(O)(C3)C2)c1cnc(NC2COC2)nc1C1CC1` (configuration not stated) gave a solubility in “physchem [2]” of 580 µM (≈ 223 µg/mL). In addition, the microsomal CLint at 50 µM in “in vitro [5]” is less than 2 µL/min/mg. Also, the pKa in the data set “physchem [3]” is 2.8. The log distribution coefficient (logD) in the data set “physchem [4]” turned out to be 1.1.

Take `COc1ccc(CN2CCC3(CC2)COC3)cc1`: the solubility in the data set “physchem [2]” came to 750 µM (≈ 186 µg/mL). Also, the microsomal CLint at 50 µM in the data set “in vitro [5]” stood at 20.6 µL/min/mg. In addition, the pKa in “physchem [3]” is 8.56. In addition, the logD in the data set “physchem [4]” worked out at 0.8.

For `COc1cc(CN2CC3(COC3)C2)ccc1OC1CN(C(=O)c2nnc(-c3ccc(C(F)F)cc3)o2)C1`, the hepatocyte CLint at 50 µM in the data set “in vitro [1]” was 19.5 µL/min/1e6 cells. This molecule returned a solubility in the data set “physchem [2]” of 82 µM (≈ 42 µg/mL). In addition, the pKa in “physchem [3]” turned out to be 8.9. Moreover, the logD in the data set “physchem [4]” came out at 2.2.

As to `COc1ccc(-c2nnc(C(=O)N3CC(Oc4ccc(CN5CC6(COC6)C5)c(C)c4)C3)o2)cc1`, the hepatocyte CLint at 50 µM in “in vitro [1]” turned out to be 17 µL/min/1e6 cells. Also, the concentration in solution in the data set “physchem [2]” (solubility) was 73 µM (≈ 34.8 µg/mL). This molecule displayed a pKa in “physchem [3]” of 8.2. This molecule came in with a logD in “physchem [4]” of 2.6.

For the molecule `COc1ccc(-c2nnc(C(=O)N3CC(Oc4ccc(CN(C)CC5(C)COC5)c(C)c4)C3)o2)cc1`, the pKa in “physchem [3]” came out at 8. In the data set “physchem [4]”, the logD came to 3.

As to `COc1ccc(-c2nnc(C(=O)N3CC(Oc4ccc(CNCC5(C)COC5)cc4)C3)o2)cc1`, the solubility in “physchem [2]” was 61 µM (≈ 28.3 µg/mL). Also, the microsomal CLint at 50 µM in “in vitro [5]” is 103 µL/min/mg. In “physchem [3]”, the pKa amounted to 8.2. The molecule also returned a logD in the data set “physchem [4]” of 2.

For the molecule `O=C(c1nnc(-c2ccccc2)o1)N1CC(Oc2ccc(CN3CC4(COC4)C3)cc2Cl)C1`, the hepatocyte CLint at 50 µM in the data set “in vitro [1]” turned out to be 12.4 µL/min/1e6 cells. This molecule gave a solubility in the data set “physchem [2]” of 76 µM (≈ 35.5 µg/mL). This molecule also displayed a pKa in the data set “physchem [3]” of 7.5. In the data set “physchem [4]”, this molecule registered a logD of 2.7.

In “in vitro [1]”, `COc1ccc(-c2nnc(C(=O)N3CC(Oc4ccc(CN5CC6(COC6)C5)cc4C)C3)o2)cc1` returned a hepatocyte CLint at 50 µM of 18.6 µL/min/1e6 cells. For the same molecule, in “physchem [2]”, the solubility turned out to be 74 µM (≈ 35.3 µg/mL). This molecule displayed a pKa in “physchem [3]” of 8.4. Besides, the logD in “physchem [4]” turned out to be 2.5.

Molecule `O=C(c1nnc(-c2ccc(C(F)F)cc2)o1)N1CC(Oc2ccc(CN3CC4(COC4)C3)cc2)C1` had a hepatocyte CLint at 50 µM in the data set “in vitro [1]” of 5.3 µL/min/1e6 cells. The solubility in “physchem [2]” was 86 µM (≈ 41.5 µg/mL). Also, the pKa in “physchem [3]” was found to be 8.5. For the same molecule, the logD in the data set “physchem [4]” was found to be 2.4.

On to `O=C(NC1C2CC3CC1CC(O)(C3)C2)c1cnc(NC2COC2)nc1C1CCCC1` (configuration not stated), for which the solubility in “physchem [2]” was more than 1820 µM. In “in vitro [5]”, this molecule showed a microsomal CLint at 50 µM of less than 2 µL/min/mg. The pKa in the data set “physchem [3]” is 2.6. This molecule registered a logD in “physchem [4]” of 2.1.

As for `O=C(c1nnc(-c2ccc(F)cc2)o1)N1CC(Oc2ccc(CN3CC4(COC4)C3)cc2)C1`, in “in vitro [1]”, the hepatocyte CLint at 50 µM was determined as 1.9 µL/min/1e6 cells. In the data set “physchem [2]”, this molecule had a solubility of 735 µM (≈ 331 µg/mL). In the data set “physchem [3]”, this molecule returned a pKa of 8.2. In “physchem [4]”, this molecule yielded a logD of 2.

`O=C(NC1C2CC3CC1CC(O)(C3)C2)c1cnc(OC2COC2)nc1C1CC1` (configuration not stated) showed a solubility in the data set “physchem [2]” of 867 µM (≈ 334 µg/mL). The same molecule had a microsomal CLint at 50 µM in the data set “in vitro [5]” of less than 2 µL/min/mg. The same molecule returned a logD in “physchem [4]” of 2.

In the case of `COc1ccc(CN2CC3(COC3)C2)cc1`, the solubility in “physchem [2]” was 364 µM (≈ 79.8 µg/mL). The intrinsic metabolic clearance (microsomal CLint) at 50 µM in the data set “in vitro [5]” is less than 3 µL/min/mg. In “physchem [3]”, this molecule registered a pKa of 8.25. Moreover, in the data set “physchem [4]”, the logD came to 0.4.

With `O=C(NC1C2CC3CC1CC(O)(C3)C2)c1cnc(NC2COC2)nc1C1CCC1` (configuration not stated), the solubility in “physchem [2]” is more than 2520 µM. The molecule further returned a microsomal CLint at 50 µM in “in vitro [5]” of less than 3.5 µL/min/mg. In the data set “physchem [3]”, this molecule registered a pKa of 2.4. In “physchem [4]”, this molecule displayed a logD of 1.6.

Molecule `COc1ccc(-c2nnc(C(=O)N3CC(Oc4ccc(COCC5(C)COC5)cc4)C3)o2)cc1` returned a solubility in “physchem [2]” of 3 µM (≈ 1.4 µg/mL). The microsomal CLint at 50 µM in “in vitro [5]” was more than 300 µL/min/mg.

Molecule `COc1cc(OC2CN(C(=O)c3nnc(-c4ccc(C(F)F)cc4)o3)C2)ccc1CN1CC2(COC2)C1` registered a hepatocyte CLint at 50 µM in the data set “in vitro [1]” of 19.4 µL/min/1e6 cells. Also, the solubility in the data set “physchem [2]” was found to be 87 µM (≈ 44.6 µg/mL). The same molecule came in with a pKa in “physchem [3]” of 8.2. Also, the logD in “physchem [4]” is 2.1.

The values above are taken from ChEMBL document CHEMBL4311950, “Hip To Be Square: Oxetanes as Design Elements To Alter Metabolic Pathways” (J Med Chem, 2019).
